Experiments:
[1] = tested on: As #128; test: Solid phase assay (Assay 1): biotinylated peptides binding to As #128; set-up: species or system sheep; key: +++++ major contribution; + minor contribution; conditions: relative contribution
In short: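 The 31 biotinylated peptides were captured on streptavidin-coated wells for 2 h at room temperature, then incubated with ovine antiserum #41 or #128 for 2 h at room temperature. Bound antiserum was detected with HRP-labelled anti-ovine IgG and a colorimetric substrate read spectrophotometrically; the signal is proportional to peptide binding.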

[2] = tested on: As #128; test: RIA (Assay 2): competition with iodinated inhibin for As #128; assay type: binding, sheep
In short: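 Graded doses of peptide or hr-inhibin standard competed with iodinated human recombinant 30 kDa inhibin tracer for the sheep antiserum at a set dilution, overnight at 4°C. Bound tracer was precipitated with goat anti-sheep IgG and gamma-counted. ED50 is the dose producing 50% loss of tracer binding.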

[3] = tested on: As #1989; test: RIA (Assay 2): competition with iodinated inhibin for As #1989; assay type: binding, rabbit
In short: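 Radioimmunoassay measuring how well peptides compete with iodinated 30 kDa human recombinant inhibin tracer for binding to antiserum #1989. Graded doses of peptide, iodinated inhibin and diluted antiserum were incubated overnight at 4° C. Antibody-bound tracer was precipitated with goat anti-sheep IgG serum and counted in a gamma counter. The ED50, the peptide concentration halving tracer binding, indicated affinity.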

[4] = tested on: As #41; test: Competitive 2-site assay (Assay 3), approach (b); assay type: binding, sheep; conditions: biotinylated peptide pools or peptides incubated with iodinated As #41
Description: This assay was developed to establish the relative importance of the individual peptides and peptide pools (identified as epitopes in Assays 1 and 2) in the sandwich antibody format used in the IFMA with As #128 as capture antibody and As #41 as detection antibody. Two approaches (a and b) were considered, Approach (a) explores the cross-reaction of peptides with inhibin for the immobilized As #128 while Approach (b) assesses their cross-reaction with inhibin for As #41.
Approach (b). In this approach, the competition of peptides with the As #41 antiserum using the sandwich antibody format was assessed. Hr-Inhibin was initially incubated with the As #128 coated wells for 1 hour at room temperature. The biotinylated peptide pools and/or individual peptides were incubated together with iodinated As #41 for 1 hour and then added to the inhibin bound As #128 coated plates and incubated for 2 hours at room temperature. Plates were then washed to remove any unbound material and the resulting activity was measured in the gamma counter.

[5] = tested on: As#128 and/or As#41; test: Inhibin IFMA with pre-immunoabsorption of antisera by peptides; assay type: binding, sheep
Description: This IFMA is used in the measurement of inhibin in serum from women with ovarian cancer and is presented at this juncture as a reference to the following procedures. The IFMA is a sandwich antibody assay in 96-well microtiter plates. The capture antiserum is As #128 and the labeled antiserum As #41, both raised in sheep to the alpha subunit of human inhibin. Sheep As #128 was also boosted with human recombinant 30-kDa inhibin. The microtiter plates were coated with a caprylic acid IgG cut of antiserum #128. Inhibin standard and serum samples were added and incubated for 2 hours at room temperature. A biotinylated antiserum (As #41) which has been immunopurified by absorption to a column of bovine (alpha)C subunit fusion protein (as previously described, Robertson et al., 1997, supra) followed by elution with a glycine (pH 2.5) buffer, was added to bind to the antibody-bound inhibin (2-hour incubation at room temperature). Fluorescently (Eu) labeled-streptavidin that has a high affinity for biotin is added (30 minutes at room temperature) and the Eu-bound streptavidin is counted in a time-resolved fluorimeter. The Eu measured is proportional to the inhibin bound by the two antisera.
As another approach, the competition of combinations of peptides at a maximum saturating dose was assessed in the IFMA (FIGS. 7-9). […] This suppression in binding provides a measure of the contribution of that particular epitope to the assay.

[6] = tested on: PO-22; test: Solid phase binding of Set 2 peptides to PO-22; set-up: species or system mouse; key: +++; ΦΦΦ strong effect; +, Φ weak effect; conditions: Set 2 biotinylated peptides 24 micromoles/L
Experimental: The binding of the 41 biotinylated peptides as set forth in Table 7 (peptide set 2) to the mouse monoclonal antibodies (PO# series) was assessed as follows:
a) Assay 1 (solid phase assay). The assay was undertaken as outlined in assay 1 of Example 2. Biotinylated peptides (24 micromoles/L) were initially bound to streptavidin-coated plates. Mab (at an appropriate dilution to give a detectable response, 1:1000, 1:10000 dilution of the culture medium) was then added and incubated for 1.5 hr. The amount of bound Mab was determined using horseradish peroxidase-bound anti-mouse IgG serum and enzyme activity detected at 450-630 nm using an ELISA plate reader.

[7] = tested on: PO-22; test: RIA of Set 2 peptides with PO-22; assay type: binding, mouse; conditions: Set 2 biotinylated peptides 0.8 and 0.08 micromoles/L
Experimental: (§1) The binding of the 41 biotinylated peptides as set forth in Table 7 (peptide set 2) to the mouse monoclonal antibodies (PO# series) was assessed as follows: b) Assay 2 (radioimrnunoassay, RIA) using iodinated human inhibin A as tracer. Mabs (at an appropriate dilution, see above) were incubated with iodinated human recombinant inhibin in the presence of biotinylated peptides (0.8 and 0.08 micromoles/L final concentration) overnight at room temperature.

[8] = tested on: R1; test: RIA of Set 2 peptides with R1; assay type: binding, mouse; set-up: key: ΦΦΦ strong effect; +, Φ weak effect; a) limited binding; conditions: Set 2 biotinylated peptides 0.8 and 0.08 micromoles/L
Experimental: as §1

[9] = biotinylated peptides, 50% fall in binding of iodinated inhibin
[10] = non-biotinylated peptides, hr-inhibin A as standard

SGSG WSPSALRLLQRPPE [Peptide 5]
#128 Antibody screen Assay 1 [1]: +
As#128 ED50 [2, 9]: 3.8 µM
ED50 values As#128 [2, 10]: >10 µM
As#1989 ED50 [3, 9]: >2.5 µM
ED50 values As#1989 [3, 10]: >10 µM
blocking of As #41 binding to the inhibin-As#128 complex [4]: 50%
% suppression at 2ng inhibin ([5]; As#41 label pre-absorbed with peptide, As#128 coating antibody: buffer): 67%
% suppression at 2ng inhibin ([5]; As#128 coating antibody pre-absorbed with peptide(s), As#41 label: buffer): 55%
% suppression at 2ng inhibin ([5]; both antisera pre-absorbed, label gives peptide(s) on As#128 coating first, then on As#41 label): 73%
PO-22 SPB [6]: +++
PO-22 RIA [7]: ΦΦ
R1 RIA [8]: ΦΦΦ
